Patent US8178506B2, “Oligomeric compounds and compositions for use in modulation of small non-coding RNAs” (Regulus Therapeutics Inc., priority 2003, dated 2012)
In the oligonucleotide strings, read from the 5' end, every base follows the letter of its sugar. An asterisk marks phosphorothioate; unmarked linkages are phosphodiester. Other units and linkages are bracketed, terminal groups are in braces. A string of capitals states the bases alone. e = 2'-O-(2-methoxyethyl) (MOE); [5mC] = 5-methylcytosine

Columns and labels:
Assay type in all cases: cell-based, human
PPARγ = PPARγ mRNA expression in adipocytes (real-time PCR)
Description: (§1) Expression of the four hallmark genes, HSL, aP2, Glut4, and PPARγ, is also measured in adipocytes transfected with oligomeric compounds of the invention. Cells are lysed on day nine post-transfection and total RNA is harvested. The amount of total RNA in each sample is determined using a Ribogreen Assay (Invitrogen Life Technologies, Carlsbad, Calif.).
(§2) For assaying adipocyte differentiation, expression of the four hallmark genes, HSL, aP2, Glut4, and PPARγ, as well as triglyceride (TG) accumulation and leptin secretion were measured in adipocytes transfected with the uniform 2′-MOE phosphorothioate (PS) oligomeric compounds previously described. Cells are lysed on day nine post-transfection, in a guanadinium-containing buffer and total RNA is harvested. Real-time PCR is performed (Applied Biosystems, Prism 7700) on the total RNA using the following primer/probe sets for the adipocyte differentiation hallmark genes: (aP2): forward 5′-GGTGGTGGAATGCGTCATG-3′ (SEQ ID NO: 746), reverse 5′-[…]-3′ (SEQ ID NO: 747), probe 5′-FAM-[…]-TAMRA-3′ (SEQ ID NO: 748); (Glut4): forward 5′-GGCCTCCGCAGGTTCTG-3′ (SEQ ID NO: 749), reverse 5′-[…]-3′ (SEQ ID NO: 750), probe 5′-FAM-[…]-TAMRA-3′ (SEQ ID NO: 751); (HSL): forward 5′-ACCTGCGCACAATGACACA-3′ (SEQ ID NO: 752), reverse 5′-[…]-3′ (SEQ ID NO: 753), probe 5′-FAM-[…]-TAMRA-3′ (SEQ ID NO: 754); (PPAR-γ): forward 5′-[…]-3′ (SEQ ID NO: 755), reverse 5′-[…]-3′ (SEQ ID NO: 756), probe 5′-FAM-[…]-TAMRA-3′ (SEQ ID NO: 757). The amount of total RNA in each sample is determined using a Ribogreen Assay (Molecular Probes, Eugene, Oreg.), and expression levels of the adipocyte differentiation hallmark genes were normalized to total RNA.

HSL = HSL mRNA expression in adipocytes (real-time PCR)
Description: as §1, §2

adipocytes = assay: Triglyceride accumulation assay in adipocytes
Description: The triglyceride accumulation assay measures the synthesis of triglyceride by adipocytes. Triglyceride accumulation is measured using the Infinity™ Triglyceride reagent kit (Sigma-Aldrich, St. Louis, Mo.). On day nine post-transfection, cells are washed and lysed at room temperature, and the triglyceride assay reagent is added. Triglyceride accumulation is measured based on the amount of glycerol liberated from triglycerides by the enzyme lipoprotein lipase. Liberated glycerol is phosphorylated by glycerol kinase, and hydrogen peroxide is generated during the oxidation of glycerol-1-phosphate to dihydroxyacetone phosphate by glycerol phosphate oxidase. Horseradish peroxidase (HRP) uses H2O2 to oxidize 4-aminoantipyrine and 3,5 dichloro-2-hydroxybenzene sulfonate to produce a red-colored dye. Dye absorbance, which is proportional to the concentration of glycerol, is measured at 515 nm using an UV spectrophotometer. Glycerol concentration is calculated from a standard curve for each assay, and data are normalized to total cellular protein as determined by a Bradford assay (Bio-Rad Laboratories, Hercules, Calif.).
An increase in triglyceride content is another well-established marker for adipocyte differentiation. The triglyceride accumulation assay measures the synthesis of triglyceride by adipocytes. Triglyceride accumulation was measured using the Infinity™ Triglyceride reagent kit (Sigma-Aldrich, St. Louis, Mo.). Human white preadipocytes (Zen-Bio Inc., Research Triangle Park, N.C.) were grown in preadipocyte media (ZenBio Inc.). One day before transfection, 96-well plates were seeded with 3000 cells/well. Cells were transfected according to standard published procedures with 250 nM oligomeric compound in LIPOFECTIN™ (Invitrogen Corporation, Carlsbad, Calif.) (Monia et al., J. Biol. Chem. 1993 268(19):14514-22). Oligomeric compounds were tested in triplicate on each 96-well plate, and the effects of TNF-α, a positive drug control that inhibits adipocyte differentiation, were also measured in triplicate. Negative and transfectant-only controls may be measured up to six times per plate. After the cells have reached confluence (approximately three days), they were exposed to differentiation media (Zen-Bio, Inc.) containing a PPAR-γ agonist, IBMX, dexamethasone, and insulin for three days. Cells were then fed adipocyte media (Zen-Bio, Inc.), which was replaced at 2 to 3 day intervals. […] Triglyceride accumulation was measured based on the amount of glycerol liberated from triglycerides by the enzyme lipoprotein lipase. Liberated glycerol is phosphorylated by glycerol kinase, and hydrogen peroxide is generated during the oxidation of glycerol-1-phosphate to dihydroxyacetone phosphate by glycerol phosphate oxidase. Horseradish peroxidase (HRP) uses H2O2 to oxidize 4-aminoantipyrine and 3,5 dichloro-2-hydroxybenzene sulfonate to produce a red-colored dye. Dye absorbance, which is proportional to the concentration of glycerol, was measured at 515 nm using an UV spectrophotometer. Glycerol concentration was calculated from a standard curve for each assay, and data were normalized to total cellular protein as determined by a Bradford assay (Bio-Rad Laboratories, Hercules, Calif.). Results are expressed as a percent±standard deviation relative to transfectant-only control.

Glut4 = Glut4 mRNA expression in adipocytes (real-time PCR)
Description: as §1, §2

aP2 = aP2 mRNA expression in adipocytes (real-time PCR); conditions: for aP2 mRNA: Table 75
Description: as §1, §2

[1] = Table 18, differentiating adipocytes, control = treatment with ISIS 342673
[2] = differentiating adipocytes transfected with oligomeric compound, Table 75
[3] = differentiating adipocytes transfected with oligomeric compound

| Substance | PPAR gamma mRNA (PPARγ; [1]) | PPAR gamma mRNA (PPARγ; [2]) | HSL mRNA (HSL; [1]) | HSL mRNA (HSL; [2]) | TG (triglyceride accumulation) (adipocytes; [1]) | TG (triglyceride accumulation) (adipocytes; [2]) | GLUT4 mRNA (Glut4; [1]) | GLUT4 mRNA (Glut4; [2]) | AP2 mRNA (aP2; [1]) | aP2 mRNA (aP2; [3]) | PPAR gamma mRNA (PPARγ; [3]) | HSL mRNA (HSL; [3]) | TG (triglyceride accumulation) (adipocytes; [3]) | GLUT4 mRNA (Glut4; [3]) | AP2 mRNA (aP2; [3]) |
| --- | --- | --- | --- | --- | --- | --- | --- | --- | --- | --- | --- | --- | --- | --- | --- |
| 328107 (antisense e[5mC]*eT*eG*eT*eG*eA*e[5mC]*eT*eT*e[5mC]*eT*e[5mC]*eT*eA*eT*e[5mC]*eT*eG*e[5mC]*e[5mC]*eT) [compound 328107] | 79.3 percentage of control | 71 percentage of untreated control (UTC) | 61.0 percentage of control | 55 percentage of untreated control (UTC) | 66.7 percentage of control | 51 percentage of untreated control (UTC) | 72.5 percentage of control | 52 percentage of untreated control (UTC) | 67.5 percentage of control | 68 percentage of untreated control (UTC) |  |  |  |  |  |
| 328108 (antisense eA*eA*eA*e[5mC]*eT*eT*eG*eT*eT*eA*eA*eT*eT*eG*eA*e[5mC]*eT*eG*eT*e[5mC]*eA) [compound 328108] | 84.0 percentage of control | 72 percentage of untreated control (UTC) | 90.1 percentage of control | 75 percentage of untreated control (UTC) | 89.6 percentage of control | 79 percentage of untreated control (UTC) | 94.9 percentage of control | 65 percentage of untreated control (UTC) | 83.7 percentage of control | 87 percentage of untreated control (UTC) |  |  |  |  |  |
| 328109 (antisense eA*eA*eA*eG*eA*eA*eG*eT*eA*eT*eA*eT*eG*e[5mC]*eA*eT*eA*eG*eG*eA*eA) [compound 328109] | 96.1 percentage of control | 69 percentage of untreated control (UTC) | 86.9 percentage of control | 62 percentage of untreated control (UTC) | 84.9 percentage of control | 23 percentage of untreated control (UTC) | 106.6 percentage of control | 55 percentage of untreated control (UTC) | 84.9 percentage of control | 68 percentage of untreated control (UTC) |  |  |  |  |  |
| 328112 (antisense eA*eT*e[5mC]*eA*eT*eT*eA*e[5mC]*eT*eG*eG*eA*eT*eT*eG*e[5mC]*eT*eG*eT*eA*eA) [compound 328112] | 102.4 percentage of control |  | 101.2 percentage of control |  | 98.1 percentage of control |  | 122.5 percentage of control |  | 99.1 percentage of control |  | 79 percentage of untreated control (UTC) | 89 percentage of untreated control (UTC) | 92 percentage of untreated control (UTC) | 97 percentage of untreated control (UTC) | 73 percentage of untreated control (UTC) |
| 328113 (antisense e[5mC]*eA*eA*eA*eA*eA*eT*eT*eA*eT*e[5mC]*eA*eG*e[5mC]*e[5mC]*eA*eG*eT*eT*eT*eA) [compound 328113] | 93.8 percentage of control | 85 percentage of untreated control (UTC) | 90.6 percentage of control | 83 percentage of untreated control (UTC) | 80.8 percentage of control | 74 percentage of untreated control (UTC) | 99.9 percentage of control | 78 percentage of untreated control (UTC) | 84.5 percentage of control | 87 percentage of untreated control (UTC) |  |  |  |  |  |
